Experimental data published in US20250154472A1, “Culture Medium for Expanding Breast Epithelial Stem Cells” (Koninklijke Nederlandse Akademie Van Wetenschappen, priority 2014, published 2025).

Key:
Assay type in all cases: cell-based, human
[1] = tested on: mammary tumor organoid line W859T; assay: Low throughput drug screen, cell viability (CellTiter-Glo 2.0), W859T; conditions: 7 days, 1 nM-30 μM, 96-well
Procedure: (§1) Organoids were photographed every 3-4 days (FIG. 8) and cell viability measured at day 7 using the CellTiter-Glo 2.0 assay (G9241, Promega) (FIG. 9).
(§2) All three organoid lines respond to Iressa at concentrations ˜10 μM indicating a dependence on EGFR signaling. […] Mammary tumor organoids are suitable for cell viability based low throughput drug screens in a 96-well format. We are currently testing the assay in a 384-well plate format which has been successfully established for colon cancer organoids.

[2] = tested on: mammary tumor organoid line W855T; assay: Low throughput drug screen, cell viability (CellTiter-Glo 2.0), W855T; conditions: 7 days
Procedure: as §1, §2

[3] = tested on: mammary tumor organoid line W854T; assay: Low throughput drug screen, cell viability (CellTiter-Glo 2.0), W854T; conditions: 7 days, 1 nM-30 μM, 96-well
Procedure: as §1, §2

[4] = tested on: mammary tumor organoid line W854T; assay: Organoid growth in medium containing Nutlin-3; conditions: 5 μM Nutlin-3

| Compound | concentration at which organoids respond (growth/viability) [1] [µM] | concentration at which organoids respond (growth/viability) ([2]; 1 nM-30 μM, 96-well) [µM] | concentration at which organoids respond (growth/viability) [3] [µM] | growth inhibition at concentrations up 30 μM [2] | growth in medium containing the p53 stabilizer [4] |
| --- | --- | --- | --- | --- | --- |
| COc1cc2ncnc(Nc3ccc(F)c(Cl)c3)c2cc1OCCCN1CCOCC1 [Iressa] | ~10 | ~10 | ~10 |  |  |
| COc1ccc(C2=N[C@@H](c3ccc(Cl)cc3)[C@@H](c3ccc(Cl)cc3)N2C(=O)N2CCNC(=O)C2)c(OC(C)C)c1 [Nutlin-3] | > 30 |  | > 30 | perhaps the exception | readily grew |
